ChEMBL document CHEMBL1122420, “Parasympatholytic (anticholinergic) esters of the isomeric 2-tropanols. 2. Non-glycolates” (J Med Chem, 1983)

Assays:
Mus musculus = assay: Induction of mydriasis in mice following s.c. administration.; type: functional; settings: sc
[1] = LD50 in mice following i.v. administration.; type: organism-based; settings: mouse, in vivo, iv

SMILES | ED50 (Mus musculus) [mg/kg] | LD50 [1] [mg/kg]
CN1C2CCC1[C@H](OC(=O)N1c3ccccc3Sc3cccnc31)CC2 (single isomer, unassigned; (+)) | 5.6 | 32
CN1C2CCC1[C@H](OC(=O)C(CO)c1ccccc1)CC2 (single isomer, unassigned; (+)) | 0.1 | 50
CCCC(C(=O)O[C@@H]1CCC2CCC1N2C)(c1ccccc1)c1ccccc1 (single isomer, unassigned; (+)) | > 10 | 18
CN1C2CCC1[C@H](OC(=O)C1c3ccccc3CCc3ccccc31)CC2 (single isomer, unassigned; (+)) | 5.6 | 32
COc1cc(C(=O)O[C@@H]2CCC3CCC2N3C)cc(OC)c1OC (single isomer, unassigned; (+)) | 32 | 56
CCCOC(C(=O)O[C@@H]1CCC2CCC1N2C)(c1ccccc1)c1ccccc1 (single isomer, unassigned; (+)) | 0.94 | 22
CN1C2CCC1[C@H](OC(=O)C(F)(c1ccccc1)c1ccccc1)CC2 (single isomer, unassigned; (+)) | 0.25 | 36
CN1C2CCC1[C@H](OC(=O)C13CC4CC(CC(C4)C1)C3)CC2 (single isomer, unassigned; (+)) | > 10 | 32
CN1C2CCC1[C@H](OC(=O)c1cc(=O)c3ccccc3o1)CC2 (single isomer, unassigned; (+)) | > 10 | 100
CN1C2CCC1[C@H](OC(=O)CC(O)(c1ccccc1)c1ccccc1)CC2 (single isomer, unassigned; (+)) | > 10 | 18
CN1C2CCC1[C@H](OC(=O)C(Cl)(c1ccccc1)c1ccccc1)CC2.Cl (single isomer, unassigned; (+)) | 0.03 | 22
CN1C2CCC1[C@H](OC(=O)C(OCc1ccccc1)(c1ccccc1)c1ccccc1)CC2.Cl (single isomer, unassigned; (+)) | 5.6 | 56
CN1C2CCC1[C@@H](OC(=O)C1c3ccccc3CCc3ccccc31)CC2 (single isomer, unassigned; (-)) | > 10 | 18
COc1cc(C(=O)O[C@H]2CCC3CCC2N3C)cc(OC)c1OC (single isomer, unassigned; (-)) | > 10 | 18
CN1[C@@H]2CC[C@H]1C[C@@H](OC(=O)C(CO)c1ccccc1)C2 (stereo not given in full) [ATROPINE] | 0.061 | 
CN1[C@@H]2C[C@@H](OC(=O)[C@H](CO)c3ccccc3)C[C@H]1[C@@H]1O[C@@H]12 [SCOPOLAMINE] | 0.012 | 
